# Target: TNFα trimer (Homo sapiens, UniProt P01375)
# Assay: TNFα FP Competitive Binding Assay
# Details: FP binding assay; 20 nM TNFα trimer, 1 nM OregonGreen488 probe; read-out: TNF IC50
# Summary of the method: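 Fluorescence polarization competition: 20 nM TNFα trimer with 1 nM fluorescein-labelled probe in HEPES/NaCl/EDTA/Triton X-100 buffer, compound in 12-point 1:3 dilutions (final top 338 μM or 100 μM). Incubated 18-24 h, background-subtracted mP read, variable-slope dose-response fitting.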
# Chain of TNFα trimer (P01375 77-233 limits assumed): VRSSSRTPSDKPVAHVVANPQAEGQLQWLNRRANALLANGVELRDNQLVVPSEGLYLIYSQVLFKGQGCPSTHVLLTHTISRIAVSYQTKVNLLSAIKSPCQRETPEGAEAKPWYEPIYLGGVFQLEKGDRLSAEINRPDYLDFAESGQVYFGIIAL
row,IC50 [nM],Compound
1,1000 to 10000,C[C@@H]1CN(c2ncc(-c3cc4c(cc3C#N)c(=O)n(C)n4Cc3ccccc3OC(F)F)cn2)CCN1C(=O)CO [Example 23.2]
2,< 1000,C[C@@H]1CN(c2ncc(-c3ccc4c(=O)n(C)n(Cc5ccccc5OC(F)F)c4c3C#N)cn2)CCN1C(=O)CO [Example 23.3]
3,< 1000,"Cc1ccc(OC(F)F)c(Cn2c3cc(-c4cnc(N5CCN(S(C)(=O)=O)[C@H](C)C5)nc4)ccc3c(=O)n2C)c1 [Example 24, (R)-1-(2-(Difluoromethoxy)-5-methylbenzyl)-2-methyl-6-(2-(3-methyl-4-(methylsulfonyl)piperazin-1-yl)pyrimidin-5-yl)-1H-indazol-3(2H)-one]"
4,< 1000,C[C@@H]1CN(c2ncc(-c3ccc4c(=O)n(C)n(Cc5cc(CC#N)ccc5OC(F)F)c4c3)cn2)CCN1C(=O)CO [Example 24.1]
5,1000 to 10000,Cc1cccc(C(C)n2c3cc(-c4cnc(N5CCN(C(=O)CO)[C@H](C)C5)nc4)ccc3c(=O)n2C)n1 (stereo partly shown) [Example 24.2]
6,< 1000,CCC(c1cccc(C)c1)n1c2cc(-c3cnc(N4CCN(C(=O)CO)[C@H](C)C4)nc3)ccc2c(=O)n1C (stereo partly shown) [Example 24.3]
7,< 1000,C[C@@H]1CN(c2ncc(-c3ccc4c(=O)n(C(F)F)n(Cc5ccccc5OC(F)F)c4c3)cn2)CCN1C(=O)CO [Example 24.4]
8,< 1000,C[C@@H]1CN(c2ncc(-c3ccc4c(=O)n(C)n(Cc5ccccc5Cl)c4c3F)cn2)CCN1C(=O)CO [Example 24.5]
9,< 1000,C[C@@H]1CN(c2ncc(-c3ccc4c(=O)n(C)n(Cc5ccccc5OC(F)F)c4c3F)cn2)CCN1C(=O)CO [Example 24.6]
10,< 1000,CC(c1cc(F)ccc1F)n1c2cc(-c3cnc(N4CCN(C(=O)CO)[C@H](C)C4)nc3)ccc2c(=O)n1C (stereo partly shown) [Example 24.7]
11,< 1000,C[C@@H]1CN(c2ncc(-c3ccc4c(=O)n(C)n(Cc5ccccc5Cl)c4c3)cn2)CCN1C(=O)CO [Example 24.8]
12,< 1000,COc1c(-c2cnc(N3CCN(C(=O)CO)[C@H](C)C3)nc2)ccc2c(=O)n(C)n(Cc3ccccc3Cl)c12 [Example 24.9]
13,1000 to 10000,Cc1ccnc(C(C)n2c3cc(-c4cnc(N5CCN(C(=O)CO)[C@H](C)C5)nc4)ccc3c(=O)n2C)c1 (stereo partly shown) [Example 24.10]
14,< 1000,C[C@@H]1CN(c2ncc(-c3nc4c(cc3F)c(=O)n(C)n4Cc3ccccc3OC(F)F)cn2)CCN1C(=O)CO [Example 24.11]
15,< 1000,Cc1c(-c2cnc(N3CCN(C(=O)CO)[C@H](C)C3)nc2)ccc2c(=O)n(C)n(Cc3ccccc3OC(F)F)c12 [Example 24.12]
16,< 1000,Cc1c(-c2cnc(N3CCN(C(=O)CO)[C@H](C)C3)nc2)ccc2c(=O)n(C)n(Cc3ccccc3Cl)c12 [Example 24.13]
17,< 1000,Cc1ccc(OC(F)F)c(Cn2c3cc(-c4cnc(N5CCN(C(=O)CC#N)[C@@H](C)C5)nc4)ccc3c(=O)n2C)c1 [Example 25.1]
18,1000 to 10000,Cc1ccc(OC(F)F)c(Cn2c3c(F)c(-c4cnc(C(C)(C)O)nc4)ccc3c(=O)n2C)c1 [Example 26.1]
19,1000 to 10000,Cc1ccc(OC(F)F)c(Cn2c3cc(-c4cnc(C(C)(C)O)nc4)ccc3c(=O)n2C(F)F)c1 [Example 26.2]
20,1000 to 10000,COC(=O)NCc1ccc(OC(F)F)c(Cn2c3cc(-c4cnc(C(C)(C)O)nc4)ccc3c(=O)n2C)c1 [Example 26.3]
21,< 1000,Cn1c(=O)c2cc(F)c(-c3cnc(C(C)(C)O)nc3)cc2n1Cc1cc(Cn2cncn2)ccc1OC(F)F [Example 26.4]
22,1000 to 10000,Cn1c(=O)c2cc(F)c(-c3cnc(C(C)(C)O)nc3)cc2n1Cc1cc(Cn2cnnc2)ccc1OC(F)F [Example 26.5]
23,1000 to 10000,CC(=O)N1CC(Cc2ccc(OC(F)F)c(Cn3c4cc(-c5cnc(C(C)(C)O)nc5)c(F)cc4c(=O)n3C)c2)C1 [Example 26.6]
24,1000 to 10000,Cc1ccc(OC(F)F)c(Cn2c3nc(-c4cnc(C(C)(C)O)nc4)c(F)cc3c(=O)n2C)c1 [Example 26.7]
25,1000 to 10000,Cn1c(=O)c2ccc(-c3cnc(C(C)(C)O)nc3)cc2n1Cc1cc(CC#N)ccc1OC(F)F [Example 26.8]

row,IC50 [nM],Compound
1,1000 to 10000,CC(=O)NCc1ccc(OC(F)F)c(Cn2c3cc(-c4cnc(N5CCN(C(C)=O)[C@H](C)C5)nc4)ccc3c(=O)n2C)c1 [Example 27.1]
2,< 1000,COC(=O)NCc1ccc(OC(F)F)c(Cn2c3cc(-c4cnc(N5CCN(C(C)=O)[C@H](C)C5)nc4)ccc3c(=O)n2C)c1 [Example 27.2]
3,< 1000,CC(=O)N1CCN(c2ncc(-c3ccc4c(=O)n(C)n(Cc5cc(CC#N)ccc5OC(F)F)c4c3)cn2)C[C@H]1C [Example 27.3]
4,1000 to 10000,CC(=O)N1CCN(c2ncc(-c3ccc4c(=O)n(C)n(Cc5cc(CC(C)C#N)ccc5OC(F)F)c4c3)cn2)C[C@H]1C (stereo partly shown) [Example 27.4]
5,< 1000,CC(=O)N1CCN(c2ncc(-c3ccc4c(=O)n(C)n(Cc5c[nH]cc5C(F)(F)F)c4c3)cn2)C[C@H]1C [Example 27.5]
6,1000 to 10000,CC(=O)N1CCN(c2ncc(-c3ccc4c(=O)n(Cc5ccncc5)n(Cc5ccccc5OC(F)F)c4c3)cn2)C[C@H]1C [Example 27.6]
7,1000 to 10000,CC(=O)N1CCN(c2ncc(-c3ccc4c(=O)n(Cc5ccncc5)n(Cc5ccccc5Cl)c4c3)cn2)C[C@H]1C [Example 27.7]
8,< 1000,"CC(c1c(F)cccc1F)n1c2cc(-c3cnc(N4CCN(C(=O)CO)[C@H](C)C4)nc3)ccc2c(=O)n1C (stereo partly drawn) [Example 28.1, 1-(1-(2,6-Difluorophenyl)ethyl)-6-(2-((R)-4-(2-hydroxyacetyl)-3-methylpiperazin-1-yl)pyrimidin-5-yl)-2-methyl-1H-indazol-3(2H)-one]"
9,< 1000,CC(c1ccccc1)n1c2cc(-c3cnc(N4CCN(C(=O)CO)[C@H](C)C4)nc3)ccc2c(=O)n1C (stereo partly shown) [Example 28.2]
10,< 1000,CC(c1ccccc1F)n1c2cc(-c3cnc(N4CCN(C(=O)CO)[C@H](C)C4)nc3)ccc2c(=O)n1C (stereo partly shown) [Example 28.3]
11,1000 to 10000,CC(c1ccccc1Cl)n1c2cc(-c3cnc(N4CCN(C(=O)CO)[C@H](C)C4)nc3)ccc2c(=O)n1C (stereo partly shown) [Example 28.4]
12,< 1000,"Cn1c(=O)c2ccc(-c3cnc(N4CCN(C=O)CC4)nc3)cc2n1Cc1cc(CO)ccc1OC(F)F [Example 29, 4-(5-(1-(2-(Difluoromethoxy)-5-(hydroxymethyl)benzyl)-2-methyl-3-oxo-2,3-dihydro-1H-indazol-6-yl)pyrimidin-2-yl)piperazine-1-carbaldehyde]"
13,1000 to 10000,Cc1cnc(C(F)(F)F)c(Cn2c3cc(-c4cnc(N5CCN6C(=O)NC[C@H]6C5)nc4)ccc3c(=O)n2C)c1 [Example 29.1]
14,1000 to 10000,Cn1c(=O)c2ccc(-c3cnc(N4CCN5C(=O)NC[C@H]5C4)nc3)cc2n1Cc1cccnc1C(F)(F)F [Example 29.2]
15,< 1000,Cc1ccc(C(F)(F)F)c(Cn2c3cc(-c4cnc(N5CCN6C(=O)NC[C@H]6C5)nc4)ccc3c(=O)n2C)c1 [Example 29.3]
16,< 1000,Cn1c(=O)c2ccc(-c3cnc(N4CCN5C(=O)NC[C@H]5C4)nc3)cc2n1Cc1c(Cl)ccc2c1COC2 [Example 29.4]
17,< 1000,Cn1c(=O)c2ccc(-c3cnc(N4CCN5C(=O)NC[C@H]5C4)nc3)cc2n1Cc1cc(Cl)ccc1C(F)(F)F [Example 29.5]
18,1000 to 10000,Cc1ccc(OC(F)F)c(Cn2c3cc(-c4cnc(N5CCN6C(=O)NC[C@H]6C5)nc4)ccc3c(=O)n2C)n1 [Example 29.6]
19,< 1000,C[C@@H]1CN(C(=O)CO)CCN1c1ncc(-c2c(F)cc3c(=O)n(C)n(Cc4ccccc4OC(F)F)c3c2F)cn1 [Example 30]
20,1000 to 10000,"CC(=O)N1CCC(O)(c2ncc(-c3ccc4c(=O)n(C)n(Cc5ccccc5OC(F)F)c4c3)cn2)CC1 [Example 32, 6-(2-(1-Acetyl-4-hydroxypiperidin-4-yl)pyrimidin-5-yl)-1-(2-(difluoromethoxy)benzyl)-2-methyl-1H-indazol-3(2H)-one]"
21,< 1000,"COCc1cccc(OC(F)F)c1Cn1c2cc(-c3cnc(N4CCN5C(=O)NC[C@@H]5C4)nc3)ccc2c(=O)n1C [Example 33, (R)-7-(5-(1-(2-(Difluoromethoxy)-6-(methoxymethyl)benzyl)-2-methyl-3-oxo-2,3-dihydro-1H-indazol-6-yl)pyrimidin-2-yl)hexahydroimidazo[1,5-a]pyrazin-3(2H)-one]"
22,< 1000,"CN1C[C@H]2CN(c3ncc(-c4ccc5c(=O)n(C)n(Cc6ccccc6OC(F)F)c5c4)cn3)CCN2C1=O [Example 34, (R)-7-(5-(1-(2-(Difluoromethoxy)benzyl)-2-methyl-3-oxo-2,3-dihydro-1H-indazol-6-yl)pyrimidin-2-yl)-2-methylhexahydroimidazo[1,5-a]pyrazin-3(2H)-one]"
23,< 1000,"Cn1c(=O)c2ccc(-c3cnc(N4CCN5C(=O)N(CCO)C[C@H]5C4)nc3)cc2n1Cc1ccccc1OC(F)F [Example 35, (R)-7-(5-(1-(2-(Difluoromethoxy)benzyl)-2-methyl-3-oxo-2,3-dihydro-1H-indazol-6-yl)pyrimidin-2-yl)-2-(2-hydroxyethyl)hexahydroimidazo[1,5-a]pyrazin-3(2H)-one]"
24,< 1000,"Cc1ccc(OC(F)F)c(Cn2c3cc(-c4cnc(N5CCN(C(=O)CO)[C@@H](C)C5)nc4)ccc3c(=O)n2C)c1 [Example 36, (S)-1-(2-(Difluoromethoxy)-5-methylbenzyl)-6-(2-(4-(2-hydroxyacetyl)-3-methylpiperazin-1-yl)pyrimidin-5-yl)-2-methyl-1H-indazol-3(2H)-one]"
25,1000 to 10000,"Cc1ccc(C#N)c(Cn2c3cc(-c4cnc(N5CCN6C(=O)NC[C@H]6C5)nc4)ccc3c(=O)n2C)c1 [Example 37, (S)-4-Methyl-2-((2-methyl-3-oxo-6-(2-(3-oxohexahydroimidazo[1,5-a]pyrazin-7(1H)-yl)pyrimidin-5-yl)-2,3-dihydro-1H-indazol-1-yl)methyl)benzonitrile]"

# Same assay, conditions: read-out: TNF IC50
row,IC50 [nM],Compound
1,1000 to 10000,C[C@H](O)CNc1ccc(Cl)c(Cn2c3cc(-c4cnc(C(C)(C)O)nc4)ccc3c(=O)n2C)c1 [Example 30.1]
2,1000 to 10000,C[C@@H](O)CNc1ccc(Cl)c(Cn2c3cc(-c4cnc(C(C)(C)O)nc4)ccc3c(=O)n2C)c1 [Example 30.2]
